Assay results as given in patent publication US20230278987A1, “Antimicrobial Compounds and Methods” (Curza Global, LLC, priority 2019, published 2023).
Converted amounts (≈) assume the structure as drawn. Where a name gives a salt, the structure may show the parent alone. Read-outs that look alike come from different tables or passages of the source.

Key:
A.baumannii (Ab) = assay: Broth microdilution MIC against A.baumannii (Ab); format: cell-based; conditions: Acinetobacter baumannii
Outline: (§1)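 CLSI M07-A9 broth microdilution with slight modification: two-fold serial dilutions (8 concentrations, triplicate) in CAMHB, or CAMHB with sodium bicarbonate (6.25 or 25 mM final) or heat-inactivated human serum 0-50%. Inoculum 5 × 10^4 CFU/well from a 0.5 McFarland culture grown at 35 ± 2° C.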

[1] = test system: E.coli S30 extract (bacterial protein synthesis); assay: E.coli S30 extract: inhibition of bacterial protein synthesis (luciferase); format: biochemical; conditions: 37° C. for 1 hour
Outline: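 Compounds (8-point 2-fold series) were incubated 1 h at 37 °C with E. coli S30 extract, premix, amino acids and pBESTluc plasmid. Reactions were chilled, luciferase reagent added and luminescence measured. Inhibition expressed relative to water controls; background from reactions lacking DNA.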

E.faecalis (Ef) = assay: Broth microdilution MIC against E.faecalis (Ef); format: cell-based; conditions: Enterococcus faecalis
Outline: as §1

S.aureus (Sa) = assay: Broth microdilution MIC against S.aureus (Sa); format: cell-based; conditions: Staphylococcus aureus
Outline: as §1

E.coli (Ec) = assay: Broth microdilution MIC against E.coli (Ec); format: cell-based; conditions: Escherichia coli
Outline: as §1

[2] = target: Rabbit Reticulocyte Lysate (eukaryotic protein synthesis); assay: Rabbit Reticulocyte Lysate: inhibition of eukaryotic protein synthesis (luciferase); format: biochemical; conditions: 30° C. for 90 minutes, read-out: retic. IC50
Outline: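 Nuclease-treated rabbit reticulocyte lysate translating luciferase control RNA, incubated 90 min at 30° C with eight 2-fold compound dilutions. Luminescence measured after adding luciferase reagent; % inhibition relative to no-inhibitor wells, with no-RNA wells as background.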

P.aeruginosa (Pa) = assay: Broth microdilution MIC against P.aeruginosa (Pa); format: cell-based; conditions: Pseudomonas aeruginosa
Outline: as §1

[3] = CAMHB supplemented with sodium bicarbonate 6.25 mM, read-out: Ab +bicarb 6.25 (MIC)
[4] = CAMHB supplemented with sodium bicarbonate 6.25 mM, read-out: Ef +bicarb 6.25 (MIC)
[5] = CAMHB supplemented with sodium bicarbonate 6.25 mM, read-out: Sa + bicarb 6.25 (MIC)
[6] = CAMHB supplemented with sodium bicarbonate 6.25 mM, read-out: E. coli + bicarb 6.25 (MIC)
[7] = CAMHB supplemented with sodium bicarbonate 6.25 mM, read-out: Pa +bicarb 6.25 (MIC)
[8] = read-out: Ab +bicarb 6.25 (MIC)
[9] = read-out: Ef +bicarb 6.25 (MIC)
[10] = read-out: Sa + bicarb 6.25 (MIC)
[11] = read-out: E. coli + bicarb 6.25 (MIC)
[12] = read-out: Pa +bicarb 6.25 (MIC)

Structure (SMILES)	MIC (A.baumannii (Ab); [3]) [µg/mL]	IC50 [1] [µM]	MIC (E.faecalis (Ef); [4]) [µg/mL]	MIC (S.aureus (Sa); [5]) [µg/mL]	MIC (E.coli (Ec); [6]) [µg/mL]	IC50 [2] [µM]	MIC (P.aeruginosa (Pa); [7]) [µg/mL]	also measured
CC(C)(N)C(=O)N1CCN(C(=O)Nc2ccn(-c3ccc4c(c3)CC(N[C@H]3CC[C@H](N)CC3)C4)c(=O)n2)CC1 (stereo partly drawn) [Compound 38, Hydrochloride Salt]	> 32	< 0.5	> 32	8 to 32	< 8	≥ 1	> 32	
CC(C)(N)C(=O)N1CCN(C(=O)Nc2ccn(-c3ccc4c(c3)CCC(N3CC(N)C3)C4)c(=O)n2)CC1 (stereo not drawn) [Compound 39]	> 32	0.5 to 1	> 32	8 to 32	8 to 32	≥ 1	> 32	
CC(C)(N)C(=O)N1CCN(C(=O)Nc2ccn(-c3ccc4c(c3)CCC(N3CC(CN)C3)C4)c(=O)n2)CC1 (stereo not drawn) [Compound 40, Hydrochloride Salt]	> 32	< 0.5	8 to 32	< 8	< 8	≥ 1	> 32	
CC(C)(N)C(=O)N1CCN(C(=O)Nc2ccn(-c3ccc4c(c3)CCC(N3CCC(CCN)CC3)C4)c(=O)n2)CC1 (stereo not drawn) [Compound 42, 4-(2-Amino-2-methylpropanoyl)-N-(1-(6-(4-(2-aminoethyl)piperidin-1-yl)-5,6,7,8-tetrahydronaphthalen-2-yl)-2-oxo-1,2-dihydropyrimidin-4-yl)piperazine-1-carboxamide hydrochloride salt]		≥ 1				≥ 1		MIC (A.baumannii (Ab); [8]): > 32 µg/mL; MIC (E.faecalis (Ef); [9]): > 32 µg/mL; MIC (S.aureus (Sa); [10]): 8 to 32 µg/mL; MIC (E.coli (Ec); [11]): < 8 µg/mL; MIC (P.aeruginosa (Pa); [12]): > 32 µg/mL
CC(C)(N)C(=O)N1CCN(C(=O)Nc2ccn(-c3ccc4c(c3)CCC(N3CCCC(N)CC3)C4)c(=O)n2)CC1 (stereo not drawn) [Compound 43]	> 32	< 0.5	> 32	< 8	< 8	≥ 1	> 32	MIC (A.baumannii (Ab); CAMHB supplemented with sodium bicarbonate 25 mM, read-out: Ab +bicarb 25 (MIC)): 8 to 32 µg/mL (≈ 14.5 to 58.1 µM); MIC (E.faecalis (Ef); CAMHB supplemented with sodium bicarbonate 25 mM, read-out: Ef +bicarb 25 (MIC)): < 8 µg/mL; MIC (S.aureus (Sa); CAMHB supplemented with sodium bicarbonate 25 mM, read-out: Sa + bicarb 25 (MIC)): < 8 µg/mL; MIC (E.coli (Ec); CAMHB supplemented with sodium bicarbonate 25 mM, read-out: E.coli + bicarb 25 (MIC)): < 8 µg/mL; MIC (P.aeruginosa (Pa); CAMHB supplemented with sodium bicarbonate 25 mM, read-out: Pa +bicarb 25 (MIC)): 8 to 32 µg/mL (≈ 14.5 to 58.1 µM)
COC(=O)N[C@H]1CC[C@H](NC2CCc3cc(-n4ccc(NC(=O)N5CCN(C(=O)C(C)(C)N)CC5)nc4=O)ccc3C2)C1 (stereo partly drawn) [Compound 45, Methyl ((1S,3S)-3-((6-(4-(4-(2-amino-2-methylpropanoyl)piperazine-1-carboxamido)-2-oxopyrimidin-1(2H)-yl)-1,2,3,4-tetrahydronaphthalen-2-yl)amino)cyclopentyl)Carbamate Hydrochloride Salt]		≥ 1				≥ 1		MIC (A.baumannii (Ab); [8]): > 32 µg/mL; MIC (E.faecalis (Ef); [9]): > 32 µg/mL; MIC (S.aureus (Sa); [10]): > 32 µg/mL; MIC (E.coli (Ec); [11]): > 32 µg/mL; MIC (P.aeruginosa (Pa); [12]): > 32 µg/mL
CC(C)(N)C(=O)N1CCN(C(=O)Nc2ccn(-c3ccc4c(c3)CN([C@H]3CC[C@H](N)CC3)C4)c(=O)n2)CC1 [Compound 46, 4-(2-amino-2-methylpropanoyl)-N-(1-(2-((trans)-4-aminocyclohexyl)isoindolin-5-yl)-2-oxo-1,2-dihydropyrimidin-4-yl)piperazine-1-carboxamide hydrochloride salt]		< 0.5				≥ 1		MIC (A.baumannii (Ab); read-out: Ab +bicarb 25 (MIC)): 8 to 32 µg/mL; MIC (E.faecalis (Ef); read-out: Ef +bicarb 25 (MIC)): 8 to 32 µg/mL; MIC (S.aureus (Sa); read-out: Sa + bicarb 25 (MIC)): < 8 µg/mL; MIC (E.coli (Ec); read-out: E.coli + bicarb 25 (MIC)): < 8 µg/mL; MIC (P.aeruginosa (Pa); read-out: Pa +bicarb 25 (MIC)): 8 to 32 µg/mL
